Reference: PubChem BioAssay AID286 (DTP/NCI, 2004)
Several values for one entry are separate records, joined by “and”; a condition that tells them apart may be missing. Equal entries are not always repeated. Toxic doses and inconclusive results are not listed. Starred links: 1 amine or outer side, 2 acyl side, 3 side chain; linkers in the order of their positions; H or OH if unused. Positions of bridges follow the written chain, without caps; N, C: chain ends. Non-standard residues stand in square brackets, D forms with d. Residues, ends and D or L forms follow the SMILES beside them. Chains are numbered I, II in the order given. ξ: configuration not given here. *: point of attachment. Quinaldoyl(3-OH,6-OMe) = COc1ccc2nc(C(=O)*)c(O)cc2c1; X1 = CCC(=O)OC1CC=NN([*:1])C1C(=O)[*:2]; X2 = CC(=O)OC1CC=NN([*:1])C1C(=O)[*:2]; ξNMeVal(3-OH) = CNC(C(=O)O)C(C)(C)O; X3 = O=C(C1CCCNN1[*:1])[*:2]; Sar = CNCC(=O)O

System: BDF1 mice, M5076 sarcoma ip, median survival T/C
Test: NCI In Vivo Anticancer Drug Screen. Data for tumor model Sarcoma M5076 (intraperitoneal) in B6D2F1 (BDF1) mice
Conditions: endpoint: median survival time, higher = longer survival
Protocol: The antitumor activity of compounds was measured in mice bearing transplantable tumors. Survival or tumor size were measured and the results are expressed as the measurement made in the treated group (T) divided by the measurement made in the vehicle treated control group (C). The tumor model used in this assay is Sarcoma M5076 (intraperitoneal) in B6D2F1 (BDF1) mice

[1] = dose: 50.0 mg/kg/injection, schedule: Q04DX004 (ip), vehicle: saline with Tween-80
[2] = dose: 100.0 mg/kg/injection, schedule: Q04DX004 (ip), vehicle: saline with Tween-80

Compound: CC(=O)N(C)c1ccc(Nc2cc(C)[nH]c3ccc4ncnc4c23)cc1
- T/C (dose: 5.0 mg/kg/injection, schedule: Q04DX004 (ip), vehicle: saline): 96 % of control

Compound: O=Cc1c(O)c2ccccc2[nH]c1=O
- T/C (dose: 25.0 mg/kg/injection, schedule: Q04DX004 (ip), vehicle: saline with Tween-80): 98 % of control
- T/C [1]: 124 % of control
- T/C [2]: 101 % of control

Compound: CN=C(N)c1ccc(N=C(N)c2ccc(C(N)=Nc3ccc(C(N)=NC)cc3)cc2)cc1
- T/C (dose: 1.3 mg/kg/injection, schedule: Q01DX005 (iv), vehicle: saline): 98 % of control
- T/C (dose: 1.3 mg/kg/injection, schedule: Q01DX005 (iv), vehicle: water): 100 % of control
- T/C (dose: 3.6 mg/kg/injection, schedule: Q01DX005 (iv), vehicle: saline): 104 % of control
- T/C (dose: 3.6 mg/kg/injection, schedule: Q01DX005 (iv), vehicle: water): 100 % of control
- T/C (dose: 3.75 mg/kg/injection, schedule: Q01DX005 (iv), vehicle: water): 99 % of control
- T/C (dose: 3.75 mg/kg/injection, schedule: Q01DX005 (sc), vehicle: water): 101 % of control
- T/C (dose: 6.0 mg/kg/injection, schedule: Q01DX005 (iv), vehicle: saline): 104 % of control
- T/C (dose: 6.0 mg/kg/injection, schedule: Q01DX005 (iv), vehicle: water): 99 % of control
- T/C (dose: 7.5 mg/kg/injection, schedule: Q01DX005 (iv), vehicle: water): 108 % of control
- T/C (dose: 15.0 mg/kg/injection, schedule: Q01DX005 (ip), vehicle: water): 165 % of control
- T/C (dose: 15.0 mg/kg/injection, schedule: Q01DX005 (sc), vehicle: water): 120 % of control
- T/C (dose: 18.0 mg/kg/injection, schedule: Q01DX005 (ip), vehicle: saline): 164 % of control
- T/C (dose: 18.0 mg/kg/injection, schedule: Q01DX005 (ip), vehicle: water): 164 % of control
- T/C (dose: 30.0 mg/kg/injection, schedule: Q01DX005 (ip), vehicle: saline): 180 % of control
- T/C (dose: 30.0 mg/kg/injection, schedule: Q01DX005 (ip), vehicle: water): 172 % of control

Compound: CCCCCCCCCCCCCCCC(=O)O[C@@H]1[C@@H](C)[C@@]2(O)[C@@H](C=C(CO)C[C@]3(O)C(=O)C(C)=C[C@@H]23)[C@H]2[C@]1(OC(C)=O)[C@]2(C)CO
- T/C (dose: 62.5 micrograms/kg/injection, schedule: Q01DX009 (ip), vehicle: distilled water + Tween-80): 117 % of control
- T/C (dose: 125.0 micrograms/kg/injection, schedule: Q01DX009 (ip), vehicle: distilled water + Tween-80): 121 % of control
- T/C (dose: 250.0 micrograms/kg/injection, schedule: Q01DX009 (ip), vehicle: distilled water + Tween-80): 122 % of control

Compound: CCC(O)CC1OC2(CCC1C)CC1OC(=O)/C=C\C(C)(O)C(O)C(C)C(O)C(OC3CC(OC)C(O)C(C)O3)C(O)C(C)(O)CCC/C=C/C3CC(C)COC3(O)CC(O2)C1C (stereo not given)
- T/C (dose: 0.25 mg/kg/injection, schedule: Q01DX009 (ip), vehicle: saline + alcohol): 105 % of control
- T/C (dose: 0.5 mg/kg/injection, schedule: Q01DX009 (ip), vehicle: saline + alcohol): 113 % of control
- T/C (dose: 1.0 mg/kg/injection, schedule: Q01DX009 (ip), vehicle: saline + alcohol): 104 % of control
- T/C (dose: 2.0 mg/kg/injection, schedule: Q01DX009 (ip), vehicle: saline + alcohol): 111 % of control

Compound: CNc1nc(N(C)C)nc(N(C)C)n1
- T/C (dose: 50.0 mg/kg/injection, schedule: Q04DX004 (ip), vehicle: saline): 114 % of control
- T/C (dose: 100.0 mg/kg/injection, schedule: Q04DX004 (ip), vehicle: saline): 119 % of control
- T/C (dose: 200.0 mg/kg/injection, schedule: Q04DX004 (ip), vehicle: saline): 123 % of control

Compound: CN=C(N)N/N=C(\C)c1ccc2sc3ccc(/C(C)=N/NC(N)=NC)cc3c2c1
- T/C [1]: 113 % of control
- T/C [2]: 105 % of control
- T/C (dose: 200.0 mg/kg/injection, schedule: Q04DX004 (ip), vehicle: saline with Tween-80): 119 % of control

Compound: C=C1C(=O)OC2C(OC(C)=O)C1C(OC(=O)C(C)CC)[C@]1(C)C(=O)C=C[C@H]1[C@@H]2C (stereo not given in full)
- T/C (dose: 1.25 mg/kg/injection, schedule: Q01DX009 (ip), vehicle: Klucel (hydroxypropylcellulose) (HPC)): 110 % of control
- T/C (dose: 2.5 mg/kg/injection, schedule: Q01DX009 (ip), vehicle: Klucel (hydroxypropylcellulose) (HPC)): 107 % of control
- T/C (dose: 5.0 mg/kg/injection, schedule: Q01DX009 (ip), vehicle: Klucel (hydroxypropylcellulose) (HPC)): 101 % of control
- T/C (dose: 10.0 mg/kg/injection, schedule: Q01DX009 (ip), vehicle: Klucel (hydroxypropylcellulose) (HPC)): 110 % of control

Compound: CN(Cc1cnc2nc(N)nc(N)c2n1)c1ccc(C(=O)N[C@@H](CCC(=O)O)C(=O)O)cc1
- T/C (dose: 1.7 mg/kg/injection, schedule: Q01DX009 (ip), vehicle: sodium bicarbonate): 93 % of control
- T/C (dose: 2.0 mg/kg/injection, schedule: Q04DX005 (ip), vehicle: sodium bicarbonate): 108 % of control
- T/C (dose: 2.6 mg/kg/injection, schedule: Q01DX009 (ip), vehicle: sodium bicarbonate): 101 % of control
- T/C (dose: 4.0 mg/kg/injection, schedule: Q04DX005 (ip), vehicle: sodium bicarbonate): 101 % of control
- T/C (dose: 8.0 mg/kg/injection, schedule: Q04DX005 (ip), vehicle: sodium bicarbonate): 112 % of control

Compound: COc1ccc2nc(C(=O)NC3COC(=O)C(C(C)(C)O)N(C)C(=O)CN(C)C(=O)CNC(=O)C4CCCNN4C(=O)C(NC(=O)c4nc5ccc(OC)cc5cc4O)COC(=O)C(C(C)(C)O)N(C)C(=O)CN(C)C(=O)CNC(=O)C4C(OC(C)=O)CC=NN4C3=O)c(O)cc2c1 (stereo not given) (I: {Quinaldoyl(3-OH,6-OMe)}-S[X2]G[Sar][ξNMeVal(3-OH)] / II: {Quinaldoyl(3-OH,6-OMe)}-S[X3]G[Sar][ξNMeVal(3-OH)]; ester I:1-II:C, I:C-II:1; configuration not given here)
- T/C (dose: 10.0 micrograms/kg/injection, schedule: Q01DX009 (ip), vehicle: DMSO): 155 % of control
- T/C (dose: 12.5 micrograms/kg/injection, schedule: Q01DX009 (ip), vehicle: DMSO): 157 % of control
- T/C (dose: 20.0 micrograms/kg/injection, schedule: Q01DX009 (ip), vehicle: DMSO): 190 % of control
- T/C (dose: 25.0 micrograms/kg/injection, schedule: Q01DX009 (ip), vehicle: DMSO): 170 % of control
- T/C (dose: 50.0 micrograms/kg/injection, schedule: Q01DX009 (ip), vehicle: DMSO): 179 % of control

Compound: O=NN(CCCl)C(=O)NC1CCCCC1
- T/C (dose: 6.0 mg/kg/injection, schedule: Q01DX005 (sc), vehicle: other): 256 % of control
- T/C (dose: 12.0 mg/kg/injection, schedule: Q01DX005 (sc), vehicle: other): 256 % of control

Compound: O=C(O)c1ccc(C(=O)O)c(C(=O)O)c1.[NH-]C1CCCCC1[NH-].[Pt+2]
- T/C (dose: 3.11 mg/kg/injection, schedule: Q04DX005 (ip), vehicle: sodium bicarbonate): 206 % of control
- T/C (dose: 5.18 mg/kg/injection, schedule: Q04DX005 (ip), vehicle: sodium bicarbonate): 181 % of control
- T/C (dose: 8.64 mg/kg/injection, schedule: Q04DX005 (ip), vehicle: sodium bicarbonate): 216 % of control
- T/C (dose: 14.4 mg/kg/injection, schedule: Q04DX005 (ip), vehicle: sodium bicarbonate): 245 % of control
- T/C (dose: 24.0 mg/kg/injection, schedule: Q04DX005 (ip), vehicle: sodium bicarbonate): 381 % of control
- T/C (dose: 40.0 mg/kg/injection, schedule: Q04DX005 (ip), vehicle: sodium bicarbonate): 87 % of control

Compound: S=c1nc[nH]c2nc[nH]c12
- T/C (dose: 20.0 mg/kg/injection, schedule: Q04DX005 (ip), vehicle: alkali diluted with saline): 96 % of control
- T/C (dose: 80.0 mg/kg/injection, schedule: Q04DX005 (ip), vehicle: alkali diluted with saline): 120 % of control

Compound: CCC(=O)OC1CC=NN2C(=O)C(NC(=O)c3nc4ccc(OC)cc4cc3O)COC(=O)C(C(C)(C)O)N(C)C(=O)CN(C)C(=O)CNC(=O)C3C(OC(C)=O)CC=NN3C(=O)C(NC(=O)c3nc4ccc(OC)cc4cc3O)COC(=O)C(C(C)(C)O)N(C)C(=O)CN(C)C(=O)CNC(=O)C12 (stereo not given) (I: {Quinaldoyl(3-OH,6-OMe)}-S[X1]G[Sar][ξNMeVal(3-OH)] / II: {Quinaldoyl(3-OH,6-OMe)}-S[X2]G[Sar][ξNMeVal(3-OH)]; ester I:1-II:C, I:C-II:1; configuration not given here)
- T/C (dose: 18.75 micrograms/kg/injection, schedule: Q01DX009 (ip), vehicle: DMSO): 117 % of control
- T/C (dose: 37.5 micrograms/kg/injection, schedule: Q01DX009 (ip), vehicle: DMSO): 165 % of control and 169 % of control
- T/C (dose: 75.0 micrograms/kg/injection, schedule: Q01DX009 (ip), vehicle: DMSO): 191 % of control and 160 % of control
- T/C (dose: 150.0 micrograms/kg/injection, schedule: Q01DX009 (ip), vehicle: DMSO): 165 % of control

Compound: COc1cc2cc(c1Cl)N(C)C(=O)C[C@H](OC(=O)[C@H](C)N(C)C(C)=O)[C@]1(C)O[C@H]1[C@H](C)[C@@H]1C[C@@](O)(NC(=O)O1)[C@H](OC)C=C/C=C(\C)C2
- T/C (dose: 37.0 micrograms/kg/injection, schedule: Q04DX004 (ip), vehicle: saline): 117 % of control
- T/C (dose: 37.0 micrograms/kg/injection, schedule: Q04DX005 (ip), vehicle: saline): 113 % of control
- T/C (dose: 75.0 micrograms/kg/injection, schedule: Q04DX004 (ip), vehicle: saline): 112 % of control
- T/C (dose: 75.0 micrograms/kg/injection, schedule: Q04DX005 (ip), vehicle: saline): 123 % of control
- T/C (dose: 150.0 micrograms/kg/injection, schedule: Q04DX004 (ip), vehicle: saline): 119 % of control
